Experimental data reported in US20260315446A1, “ANTIFUNGAL COMPOUNDS AND USES THEREOF” (priority 2023, published 2026).
In brackets after ≈: the same amount, converted by molar mass. Where two headings read alike, the source gives them in different places.

Legend:
[1] = tested on: C. neoformans growth versus IL-2 in murine T cells; assay: Therapeutic index score (immunosuppressive fold change to antifungal fold change relative to FK506); set-up: species or system Cryptococcus neoformans; mouse; settings: Example 3; C. neoformans H99, FK506 = 1.0
Excerpt: To assess the therapeutic potential for these compounds, it was important to develop an approach to score and rank them based on antifungal and immunosuppressive activities. The therapeutic index score (TIscore) is a ratio of the immunosuppressive fold change to the antifungal fold change, with all values relative to the baseline FK506 activity (FIG. 6B). A TIscore of >1.0 indicates an increase in fungal specificity because the fold change of the immunosuppressive reduction is greater than the antifungal activity reduction. As an example, JH-FK-05 is 20-fold reduced for antifungal activity but about 180-fold reduced for immunosuppression. Therefore, the TIscore of JH-FK-05 is 9.1 (TIscore=182/20). The top two analogs were JH-FK-02 (TIscore=9.7) and JH-FK-05 (TIscore=9.1). Due to the similar TIscore, JH-FK-05 was prioritized to advance to animal trials on the merit of more pronounced antifungal activity compared to JH-FK-02.
Based on the in vitro fungal and mammalian calcineurin inhibition data, the panel of FK520 analogs was assessed and ranked. Therapeutic index (TI) scores were used to quantify the effects of structural modification on the compounds (Table 8). Therapeutic index scores were calculated for each analog as the ratio of relative change in immunosuppressive and antifungal activities compared to FK506 as previously utilized (see, I-Toy M J, et at. 2022. mBio 13:e0104922). This ratio of therapeutic benefit and host toxicity, or fungal and mammalian calcineurin inhibition, allowed us to quantify and rank these analogs. […] This is the greatest TI found within the library and allowed us to identify JH-FK-08 as a lead candidate for an in vivo study. Tolerability of JH-FK-08 was assessed by monitoring animal responses to drug dosing across 14 days, including changes in weight, fur condition, and behavior. A maximum dose of 40 mg/kg was tested in once a day dosing, and due to solubility limitations, the tolerability of JH-FK-08 at 60 and 80 mg/kg total daily doses was assessed by dosing two equal doses per day (FIG. 14). […] It should be noted that analogs JH-FK-12 and JH-FK-23 are also promising candidates with respective Tis of 24.7 and 24.5.

Cryptococcus neoformans = assay: MIC assay (Example 3); type: cell-based; settings: Cryptococcus neoformans
Description: (§1) In vitro antifungal activity was assessed for all fungal strains in RPMI 1640 (Sigma-Aldrich R1383). MICs were measured using Clinical and Laboratory Standards Institute (CLSI) M38-A2 and M27-A3 standard in vitro antifungal susceptibility protocols. C. neoformans and A. fumigatus testing was performed at 37° C. MECs for A. fumigatus were recorded after 48 h of growth. C. albicans testing was performed at 30° C. with a uniform concentration of 2 μg/mL of fluconazole to sensitize the cells to calcineurin inhibition.
(§2) C. neoformans clinical isolate H99 and congenic-derived strain KN99α were used (see, Nielsen K, et al., 2003. Infect Immun 71:4831-4841). KN99α-derived frr1Δ deletion mutants with nourseothricin resistance markers as part of the Madhani deletion collection (NIH funding R01AI100272) were used. C. deneoformans strains used include JEC21 and derived C21F2 (CNB1-1) and C21F3 (frr1-3) strains (see, Odom A, et al., 1997. EMBO J 16:2576-2589; Moore T D, Edman J C. 1993. Mol Cell Biol 13:1962-1970; Fox D S, et al., 2001. Mol Microbiol 39:835-849). C. albicans strain SC5314 is the wild-type strain from which mutants YAG171 (rbp1/rbp1) and YAG237 (CNB1-1/CNB1) were derived (see, Cruz M C, et al., 2001. Antimicrob Agents Chemother 45:3162-3170). A. fumigatus strain akuB^Ku80 and a derived FKBP12 mutant fkbp12A were used during antifungal screening (see, Falloon K, et al., 2015. PLoS One 10:e0137869).

[2] = tested on: IL-2 expression in primary mouse CD4+ T cells (mammalian calcineurin); assay: In vitro immunosuppressive activity, IL-2 expression (Example 3); type: cell-based; settings: 72 h
Description: Modifications at the C-22 position reduce inhibition of mammalian calcineurin signaling Mammalian calcineurin inhibition was then assessed and found to be reduced for these FK520 analogs. The inhibition of mammalian calcineurin was assessed by measuring the reduction of IL-2 expression from primary mouse CD4^+ T cells cultured in the presence of FK506, FK520, or an analog. Calcineurin activity is required for T cell activation and cytokine production, and IL-2 production serves as an effective measure of mammalian calcineurin activity. After culturing mouse CD4′ T cells for 72 h, IL-2 expression was analyzed by flow cytometry to evaluate the immunosuppressive activity of the analogs. […] However, compound concentrations that permit high IL-2 expression are less likely to result in cell death.
Spleen and lymph nodes from C57BL/6 mice were collected and homogenized through a 40-μm filter. Pan-CD4^+ T cells were enriched using the MagniSort Mouse CD4 T Cell Enrichment Kit (Invitrogen). Thereafter, CD4^+CD25^−CD62L^hiCD44^lo naïve CD4^+ T cells were FACS-sorted using a MoFlo Astrios cell sorter (Beckman Coulter). Naïve CD4^+ T cells were cultured in Iscove's Modified Dulbecco's Medium supplemented with 10% fetal bovine serum (FBS), penicillin (10 U/mL), streptomycin (10 μg/mL), glutamine (2 mM), gentamicin (50 μg/mL), and β-mercaptoethanol (55 μM). Cells were cultured for 72 h on anti-hamster IgG-coated plates with hamster anti-CD3s antibodies, hamster anti-CD28 antibodies, neutralizing anti-IL-4 antibodies, recombinant IL-12 (10 ng/mL), and recombinant IL-2 (50 U/mL). During this culture, cells were incubated with serially diluted drugs suspended in DMSO.

Candida albicans = assay: MIC assay (Example 3); type: cell-based; settings: Candida albicans
Description: as §1, §2

Aspergillus fumigatus = assay: MEC assay (Example 3); settings: strain akuB^Ku80
[3] = SC5314, read-out: MIC against Candida albicans (SC5314)
[4] = read-out: MIC against Cryptococcus neoformans (H99)
[5] = SC5314, MIC80, 30° C. with 2 μg/mL fluconazole, read-out: MIC against Candida albicans (SC5314)
[6] = MIC90, 37° C., read-out: MIC against Cryptococcus neoformans (H99)

Row | SMILES | Therapeutic index [1] | MIC (Cryptococcus neoformans; Table 8, read-out: H99 MIC90) | IC50 [2] | MIC (Candida albicans; [3]) | MIC (Cryptococcus neoformans; [4]) | MEC against Aspergillus fumigatus (akuB^Ku80) (Aspergillus fumigatus) | MIC (Candida albicans; [5]) | MIC (Cryptococcus neoformans; [6])
1 | CC[C@@H]1/C=C(\C)C[C@H](C)C[C@H](OC)[C@H]2O[C@@](O)(C(=O)C(=O)N3CCCC[C@H]3C(=O)O[C@H](/C(C)=C/C3CC[C@@H](O)[C@H](OC)C3)[C@H](C)[C@@H](O)C/C1=N/NC(=O)NN)[C@H](C)C[C@@H]2OC (stereo partly drawn) [JH-FK-21] | 18.9 | 1.6 µg/mL (≈ 1.85 µM) | 54.5 nM | – | – | – | – | –
2 | CC[C@@H]1/C=C(\C)C[C@H](C)C[C@H](OC)[C@H]2O[C@@](O)(C(=O)C(=O)N3CCCC[C@H]3C(=O)O[C@H](/C(C)=C/[C@@H]3CC[C@@H](O)[C@H](OC)C3)[C@H](C)[C@@H](O)CC1=NNS(=O)(=O)c1ccc(C)cc1)[C@H](C)C[C@@H]2OC [JH-FK-13] | – | – | – | > 50 µg/mL | > 50 µg/mL | >10 µg/mL | – | –
3 | CC[C@@H]1/C=C(\C)C[C@H](C)C[C@H](OC)[C@H]2O[C@@](O)(C(=O)C(=O)N3CCCC[C@H]3C(=O)O[C@H](/C(C)=C/C3CC[C@@H](O)[C@H](OC)C3)[C@H](C)[C@@H](O)C/C1=N/NS(C)(=O)=O)[C@H](C)C[C@@H]2OC (stereo partly drawn) [JH-FK-23] | 24.5 | 1.6 µg/mL (≈ 1.81 µM) | 70.5 nM | – | – | 5 µg/mL | 1.6 µg/mL (≈ 1.81 µM) | 1.6 µg/mL (≈ 1.81 µM)
4 | CC[C@@H]1/C=C(\C)C[C@H](C)C[C@H](OC)[C@H]2O[C@@](O)(C(=O)C(=O)N3CCCC[C@H]3C(=O)O[C@H](/C(C)=C/C3CC[C@@H](O)[C@H](OC)C3)[C@H](C)[C@@H](O)C/C1=N/NC(=O)c1ccncc1)[C@H](C)C[C@@H]2OC (stereo partly drawn) [JH-FK-09] | 7.8 | 0.8 µg/mL (≈ 0.878 µM) | 11.2 nM | – | – | 1.3 µg/mL | 0.8 µg/mL (≈ 0.878 µM) | 0.8 µg/mL (≈ 0.878 µM)
5 | CC[C@@H]1/C=C(\C)C[C@H](C)C[C@H](OC)[C@H]2O[C@@](O)(C(=O)C(=O)N3CCCC[C@H]3C(=O)O[C@H](/C(C)=C/C3CC[C@@H](O)[C@H](OC)C3)[C@H](C)[C@@H](O)C/C1=N/NC(N)=O)[C@H](C)C[C@@H]2OC (stereo partly drawn) [JH-FK-12] | 24.7 | 0.8 µg/mL (≈ 0.942 µM) | 35.6 nM | – | – | 2.5 µg/mL | 0.8 µg/mL (≈ 0.942 µM) | 0.8 µg/mL (≈ 0.942 µM)
6 | CC[C@@H]1/C=C(\C)C[C@H](C)C[C@H](OC)[C@H]2O[C@@](O)(C(=O)C(=O)N3CCCC[C@H]3C(=O)O[C@H](/C(C)=C/C3CC[C@@H](O)[C@H](OC)C3)[C@H](C)[C@@H](O)C/C1=N/NC(=O)c1ccc(N)cc1)[C@H](C)C[C@@H]2OC (stereo partly drawn) [JH-FK-20] | 12.3 | 0.8 µg/mL (≈ 0.865 µM) | 17.8 nM | – | – | 0.6 µg/mL | 0.8 µg/mL (≈ 0.865 µM) | 0.8 µg/mL (≈ 0.865 µM)
7 | CCNN=C1C[C@H](O)[C@@H](C)[C@@H](/C(C)=C/[C@@H]2CC[C@@H](O)[C@H](OC)C2)OC(=O)[C@@H]2CCCCN2C(=O)C(=O)[C@]2(O)O[C@H]([C@@H](OC)C[C@@H](C)C/C(C)=C/[C@H]1CC)[C@@H](OC)C[C@H]2C [JH-FK-16] | – | – | – | 0.4 µg/mL (≈ 0.48 µM) | 0.4 µg/mL (≈ 0.48 µM) | 1.3 µg/mL | – | –
8 | CC[C@@H]1/C=C(\C)C[C@H](C)C[C@H](OC)[C@H]2O[C@@](O)(C(=O)C(=O)N3CCCC[C@H]3C(=O)O[C@H](/C(C)=C/C3CC[C@@H](O)[C@H](OC)C3)[C@H](C)[C@@H](O)C/C1=N/NC(=O)c1cccc(C(=O)NN)c1)[C@H](C)C[C@@H]2OC (stereo partly drawn) [JH-FK-14] | 4.9 | 1.6 µg/mL (≈ 1.65 µM) | 14 nM | – | – | 0.6 µg/mL | 0.8 µg/mL (≈ 0.826 µM) | 1.6 µg/mL (≈ 1.65 µM)
9 | CC[C@@H]1/C=C(\C)C[C@H](C)C[C@H](OC)[C@H]2O[C@@](O)(C(=O)C(=O)N3CCCC[C@H]3C(=O)O[C@H](/C(C)=C/C3CC[C@@H](O)[C@H](OC)C3)[C@H](C)[C@@H](O)C/C1=N/NC(=O)CO)[C@H](C)C[C@@H]2OC (stereo partly drawn) [JH-FK-22] | 15.6 | 1.6 µg/mL (≈ 1.85 µM) | 45 nM | – | – | – | – | –
10 | CC[C@@H]1/C=C(\C)C[C@H](C)C[C@H](OC)[C@H]2O[C@@](O)(C(=O)C(=O)N3CCCC[C@H]3C(=O)O[C@H](/C(C)=C/[C@@H]3CC[C@@H](O)[C@H](OC)C3)[C@H](C)[C@@H](O)CC1=NNC(=O)NN)[C@H](C)C[C@@H]2OC [JH-FK-21] | – | – | – | 0.8 µg/mL (≈ 0.926 µM) | 1.6 µg/mL (≈ 1.85 µM) | 2.5 µg/mL | – | –
11 | CC[C@@H]1/C=C(\C)C[C@H](C)C[C@H](OC)[C@H]2O[C@@](O)(C(=O)C(=O)N3CCCC[C@H]3C(=O)O[C@H](/C(C)=C/[C@@H]3CC[C@@H](O)[C@H](OC)C3)[C@H](C)[C@@H](O)CC1=NNC(=O)CO)[C@H](C)C[C@@H]2OC [JH-FK-22] | – | – | – | 1.6 µg/mL (≈ 1.85 µM) | 1.6 µg/mL (≈ 1.85 µM) | 2.5 µg/mL | – | –
12 | CCN/N=C1/C[C@H](O)[C@@H](C)[C@@H](/C(C)=C/C2CC[C@@H](O)[C@H](OC)C2)OC(=O)[C@@H]2CCCCN2C(=O)C(=O)[C@]2(O)O[C@H]([C@@H](OC)C[C@@H](C)C/C(C)=C/[C@H]1CC)[C@@H](OC)C[C@H]2C (stereo partly drawn) [JH-FK-16] | 8.2 | 0.4 µg/mL (≈ 0.48 µM) | 5.9 nM | – | – | – | – | –
